Assay results from patent US20060100154A1, “Long-acting gonadotropin-releasing hormone analogs and methods of use thereof” (YEDA RESEARCH AND DEVELOPMENT CO, priority 2005, published 2006).
Square brackets hold non-standard residues; d marks the D form. d(pGlu) = O=C1CC[C@H](C(=O)O)N1

Columns and labels:
[1] = tested on: primary cultures of rat pituitary cells; assay: Effect of GnRH antagonist on LH secretion stimulated by [D-Lys6(Emo)]GnRH; format: cell-based; details: [D-Lys6(Emo)]GnRH 20 pM, antagonist 100 nM, 4 h; FIG. 5
Protocol: To determine the effect of a GnRH antagonist ([D-pyr^1, D-Phe^2, D-Trp^3,6]GnRH) on the induction of LH secretion from primary cultures of rat pituitary cells stimulated by [D-Lys^6(Emo)]GnRH, cells were incubated for 4 h at 37° C. with [D-Lys^6(Emo)]GnRH (20 pM) in the absence or presence of the GnRH antagonist (100 nM). The media were collected and LH concentration was determined by RIA (FIG. 5). Results are the mean±SEM of LH concentrations obtained from two experiments (4 wells/experimental group, each).

[2] = tested on: testes and prostate glands; assay: Long-term treatment of male rats: weight of testes and prostate glands; format: in vivo; details: 0.1 nmol/rat daily for 7 days vs parent peptide 1 nmol/rat; FIG. 7
Protocol: Control rats were injected daily with 0.5 mL of PBS. Rats were sacrificed 24 h after the last injection, and the testes and prostate glands were immediately dissected and weighed (FIG. 7). Results are the meant±SEM of the weight of the organs (six animals/experimental group).

αT3-1 cells [3] = assay: In vitro toxicity / phototoxicity (XTT cell survival); format: cell-based, mouse
Protocol: αT3-1 cells (50,000 cells/well) were plated in 96-well tissue culture plates in 0.1 mL of complete medium. After 24 h the medium was changed and cells were incubated in the same medium (without serum and phenol red) containing different concentrations of the tested compounds for 4 h at 37° C. The cells were then washed (×3) with PBS and illuminated (λmax=400 nm) in PBS. The fluence rate was 14.3 mW cm^−2 with a total fluence of 17 J cm^−2. Following illumination the media were replaced by complete medium and the plates were incubated for additional 24 h at 37° C. Cell survival was determined using the XTT (Biological Industries, Beit-Haemek, Israel) kit following the manufacture's protocol. Values are expressed as % survival.

αT3-1 cells [4] = assay: DNA fragmentation assay; format: cell-based, mouse; details: 10 μM, FIG. 10
Protocol: FIG. 10. DNA cleavage in cells treated with [D-Lys^6(Emo)]GnRH and emodic acid. αT3-1 cells were incubated; in darkness with 10 μM of the tested compounds, washed and illuminated. After 24 h of incubation DNA was isolated and analyzed by gel electrophoresis. Lanes 1, 3 and 5 represent DNA of cells treated with 1% DMSO in PBS, emodic acid or [D-Lys^6(Emo)]GnRH, respectively, followed by illumination. Lane 2, 4 and 6 represent cells treated with 1% DMSO in PBS, emodic acid, or [D-Lys^6(Emo)]GnRH, respectively, in darkness.
αT3-1 cells (×10^6/dish) were incubated in phenol red and serum free complete medium (37° C., 5% CO2) with the tested compounds for 5 h in the dark. Cells were then washed with PBS (×3) and illuminated or remained in darkness as described earlier. The media were then replaced by complete medium and cells were incubated for additional 24 h. DNA was then isolated, using Wizard® genomic DNA purification kit (Promega, Madison, Wis.) following the company's protocol and analyzed by gel electrophoresis (0.4% cross linked agarose, ethidium bromide staining).

LH release = assay: In vivo LH release after intraperitoneal administration; design: species or system rat; details: six h after administration; 0.04 vs 0.4 nmol/rat i.p.
Protocol: The ability of [D-Lys^6(Emo)]GnRH to bind GnRH receptors and promote LH release in vitro, prompted the evaluation of its in vivo activity.
Blood samples were withdrawn by cardiac puncture under light ether anesthesia at the indicated time intervals, and serum LH levels were determined by RIA as described above (FIG. 6). Results are the mean±SEM of LH concentrations in the serum of five animals/experimental group. The LH concentration was determined using three different dilutions of each serum sample. Similar results were obtained in two other experiments.

[5] = tested on: primary cultures of rat pituitary cells; assay: LH releasing potency in primary rat pituitary cell cultures; format: cell-based; details: 4 h, 37° C.; compared to [D-Lys6]GnRH; FIG. 4
Protocol: The media were then collected and LH concentration were analyzed by double-antibody radioimmunoassay (RIA)^32 using kits kindly supplied by the National Institute of Arthritis, Metabolism and Digestive Diseases (NIMDD). Results (FIG. 4) are expressed in terms of LH-RP-3 rat reference preparation, and are the mean±SEM of LH concentration of two experiments (4 wells/experimental group, each). The basal release after 4 h was 9.41±2 ng/mL.

[6] = biological target: T1, human serum albumin (HSA) (Homo sapiens, UniProt P02768); assay: Binding to HSA; format: in vitro ADME; details: 37° C., 3 h; FIG. 8
T1 construct: purchased Sigma, St. Louis, Mo
Protocol: The concentration of HSA in the solution was determined using a molar extinction coefficient of 39,000 M^−1 cm^−1 at 277.5 nm^33. The unbound compound was then separated from the HSA solution by applying it on to a Centricon® concentrator column (Amicon Inc., Beverly, Mass.) with a band pass membrane of […] according to the manufacture's protocol. The HSA bound compound (˜20 μL) was then precipitated by adding it to acetonitrile (1 mL). The supernatant was kept and the precipitate was dissolved in PBS (100 μL) and re-precipitated. The combined supernatants were evaporated, the residue was dissolved in water containing 0.1% TFA (buffer A) and analyzed by HPLC to determine the amount of the tested compounds. Results represent the mean of two experiments (FIG. 8).

[7] = Relative hydrophobicity by elution from RP-18 HPLC column; format: physicochemical; details: percent of buffer B in which the analog was eluted from RP-18 column
From the text: All chemicals and reagents were of analytical grade. Rink amide resin, 9-fluorenylmethoxycarbonyl (Fmoc) protected amino acid derivatives, and all the reagents for solid-phase peptide synthesis were purchased from Novabiochem (Läufelfingen, Switzerland). Side-chain protecting groups employed for peptide synthesis were as follows: Arg, 2,2,4,6,7-pentamethyldihydrobenzofuran-5-sulfonyl (Pbf); His, trityl (Trt); D-Lys, 4-methyltrityl (Mtt) or tert-butyloxycarbonyl (Boc); Trp, tert-butyloxycarbonyl (Boc); Ser and Tyr, tert-butyl (tBu). Reversed phase HPLC was performed on a Spectra-Physics SP-8800 liquid chromatography system equipped with an Applied Biosystems 757 variable wavelength absorbance detector. HPLC prepacked columns were: Lichrocart, containing Lichrosorb RP-18 (250×10 mm; 7 μm, Merck, Darmstadt, Germany) for semi-preparative purification and Lichrospher 100 RP-18 (250×4 mm; 5 μm, Merck, Darmstadt, Germany) and wide pore butyl C4 (250×4.6 mm; 5 μm, J. T. Baker Inc., Phillipsburg, N.J.) for analytical purposes. HPLC purification and analysis were achieved by using a linear gradient established between 0.1% trifluoroacetic acid […] in water as buffer A and 0.1% TFA in 75% aqueous acetonitrile as buffer B. Eluent composition was 10-100% B over 40 mlin, using RP-18 column, and a gradient of 0-100% B over 40 min employing a wide pore butyl (C4) column. N-(2noro-1,4-naphtoqumonyl)-β-alanine (NQ), 1,6,8-Trihydroxy-3-carboxylic acid-anthraquinone (Emo) and 2-hydroxymethyl-anthraquinone hemiglutarate (AntrQ) were synthesized as described^14,24,27 (for chemical structure see FIG. 1).

[8] = biological target: T2, rat pituitary GnRH receptors (Rattus norvegicus, UniProt P30969); assay: Displacement binding assay with 125I[D-Lys6]GnRH on rat pituitary membranes; details: vs [D-Lys6]GnRH
T2 construct: from tissue; host or cells: rat pituitary membranes (Wistar-derived rats)
T2 sequence (P30969 1-327): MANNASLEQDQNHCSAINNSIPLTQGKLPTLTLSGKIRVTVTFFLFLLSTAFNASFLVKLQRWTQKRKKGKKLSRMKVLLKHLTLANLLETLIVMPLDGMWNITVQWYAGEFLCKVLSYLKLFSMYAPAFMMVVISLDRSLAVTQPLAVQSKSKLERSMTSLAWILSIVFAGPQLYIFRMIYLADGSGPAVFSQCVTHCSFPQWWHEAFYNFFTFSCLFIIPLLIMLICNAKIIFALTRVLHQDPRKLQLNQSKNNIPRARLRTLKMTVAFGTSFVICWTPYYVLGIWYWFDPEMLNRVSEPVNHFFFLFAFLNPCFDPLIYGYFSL
Protocol: Specific binding was calculated by subtracting the non-specific binding from the maximal binding, determined in the absence of any competing peptide. Results are the mean of two experiments carried out in triplicates. SEM values are omitted for clarity (FIG. 3).

T1 sequence (P02768 25-609): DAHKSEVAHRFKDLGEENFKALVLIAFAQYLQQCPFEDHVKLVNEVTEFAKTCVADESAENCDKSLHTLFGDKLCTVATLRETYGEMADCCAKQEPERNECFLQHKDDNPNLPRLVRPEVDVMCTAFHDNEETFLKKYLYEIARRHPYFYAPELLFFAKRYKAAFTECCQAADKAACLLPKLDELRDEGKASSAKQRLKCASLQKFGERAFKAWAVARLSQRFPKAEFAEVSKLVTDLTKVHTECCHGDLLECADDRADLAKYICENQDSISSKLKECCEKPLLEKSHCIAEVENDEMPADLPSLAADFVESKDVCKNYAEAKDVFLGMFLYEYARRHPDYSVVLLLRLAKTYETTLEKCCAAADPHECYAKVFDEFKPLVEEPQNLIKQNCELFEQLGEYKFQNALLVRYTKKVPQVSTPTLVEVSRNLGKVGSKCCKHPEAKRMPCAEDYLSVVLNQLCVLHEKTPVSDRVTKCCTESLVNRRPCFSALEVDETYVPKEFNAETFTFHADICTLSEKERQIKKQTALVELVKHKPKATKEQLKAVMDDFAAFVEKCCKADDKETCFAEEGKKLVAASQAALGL

Compound | inhibition of [D-Lys6(Emo)]GnRH-induced LH secretion [1] | decrease in testicular and ventral prostate gland weights [2] | phototoxicity to αT3-1 cells (αT3-1 cells [3]; 10 μM, illuminated, FIG. 9) | toxicity to αT3-1 cells in the dark (αT3-1 cells [3]; incubated in the dark) | DNA fragmentation in the dark (αT3-1 cells [4]; darkness) | DNA fragmentation upon illumination (αT3-1 cells [4]; illuminated) | LH levels relative to group treated with [D-Lys6]GnRH (LH release) | LH releasing activity in vitro [5] | binding to HSA [6] | Hydrophobicity (% B) [7] [% B] | reduction of affinity to GnRH receptors compared to the parent peptide [8]
[D-pGlu^1, D-Phe^2, D-Trp^3,6]GnRH ([d(pGlu)][dF][dW]SY[dW]LRPG-NH2; SMILES CC(C)C[C@H](NC(=O)[C@@H](Cc1c[nH]c2ccccc12)NC(=O)[C@H](Cc1ccc(O)cc1)NC(=O)[C@H](CO)NC(=O)[C@@H](Cc1c[nH]c2ccccc12)NC(=O)[C@@H](Cc1ccccc1)NC(=O)[C@H]1CCC(=O)N1)C(=O)N[C@@H](CCCNC(=N)N)C(=O)N1CCC[C@H]1C(=O)NCC(N)=O) [GnRH antagonist] | completely inhibited |  |  |  |  |  |  |  |  |  | 
CC(C)C[C@H](NC(=O)[C@@H](CCCCNC(=O)c1cc(O)c2c(c1)C(=O)c1cc(O)cc(O)c1C2=O)NC(=O)[C@H](Cc1ccc(O)cc1)NC(=O)[C@H](CO)NC(=O)[C@H](Cc1c[nH]c2ccccc12)NC(=O)[C@H](Cc1c[nH]cn1)NC(=O)[C@@H]1CCC(=O)N1)C(=O)N[C@@H](CCCNC(=N)N)C(=O)N1CCC[C@H]1C(=O)NCC(N)=O [[D-Lys^6(Emo)]GnRH, [D-Lys^6(1,3,8-trihydroxy-6-carboxy-anthraquinone)]GnRH] |  | greater decrease | did not exhibit any toxicity | did not show any toxicity | did not cause any DNA fragmentation | but not [D-Lys^6(Emo)]GnRH (lane 5) induced DNA fragmentation | about 6 folds | highest bioactivity | binds significantly to HSA | 66 | about 3 fold
